Source: patent US20140378408A1, “NUCLEOSIDE 5'-PHOSPHOROTHIOATE ANALOGUES AND USES THEREOF” (BAR-ILAN UNIVERSITY, an Israeli University, priority 2012, published 2014)
Read-outs that look alike come from different tables or passages of the source.

What was measured:
[1] = biological target: T1, human NPP1 (Homo sapiens, UniProt P22413); experiment: Inhibition of NPP1 activity; format: biochemical; details: for type of inhibition: Dixon and Cornish-Bowden methods; for inhibition of pnp-TMP hydrolysis by NPP1: analogue and pnp-TMP 100 μM
T1 construct: made in house; host or cells: COS-7 cells (transfected; protein extract / cell lysate)
T1 sequence (P22413 1-925): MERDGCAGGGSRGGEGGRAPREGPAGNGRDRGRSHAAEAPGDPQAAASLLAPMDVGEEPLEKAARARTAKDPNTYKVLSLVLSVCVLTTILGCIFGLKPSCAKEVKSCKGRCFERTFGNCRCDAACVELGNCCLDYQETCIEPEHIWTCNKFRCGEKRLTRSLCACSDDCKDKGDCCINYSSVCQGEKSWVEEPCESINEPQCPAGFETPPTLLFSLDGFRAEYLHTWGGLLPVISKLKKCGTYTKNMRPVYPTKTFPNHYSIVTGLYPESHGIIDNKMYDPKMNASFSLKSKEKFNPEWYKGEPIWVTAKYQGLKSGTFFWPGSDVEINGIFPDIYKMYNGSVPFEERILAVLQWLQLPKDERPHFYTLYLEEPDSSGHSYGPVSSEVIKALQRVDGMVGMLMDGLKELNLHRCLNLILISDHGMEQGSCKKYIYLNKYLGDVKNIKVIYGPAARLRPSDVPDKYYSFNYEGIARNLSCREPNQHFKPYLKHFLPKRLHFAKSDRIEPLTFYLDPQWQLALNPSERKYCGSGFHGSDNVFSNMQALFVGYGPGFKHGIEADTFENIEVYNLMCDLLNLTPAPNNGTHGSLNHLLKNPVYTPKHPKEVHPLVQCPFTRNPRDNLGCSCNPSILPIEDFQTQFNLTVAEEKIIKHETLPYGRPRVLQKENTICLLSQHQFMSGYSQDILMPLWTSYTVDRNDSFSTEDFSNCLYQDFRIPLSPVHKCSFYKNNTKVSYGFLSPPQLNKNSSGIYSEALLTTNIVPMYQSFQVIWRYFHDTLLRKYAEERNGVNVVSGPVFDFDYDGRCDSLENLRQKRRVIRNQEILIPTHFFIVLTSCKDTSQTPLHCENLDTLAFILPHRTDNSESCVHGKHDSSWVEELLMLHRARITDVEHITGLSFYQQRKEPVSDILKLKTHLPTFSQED

[2] = biological target: T2, human NTPDase3 (Homo sapiens, UniProt O75355); experiment: Inhibition of NTPDase3 activity; details: for effect on human NTPDase3 activity: Table 5, ATP and analogue 100 μM, 100% activity = ATP alone; for inhibition of the hydrolysis of ATP by NTPDase3: analogue and ATP 100 μM
T2 sequence (O75355 1-529): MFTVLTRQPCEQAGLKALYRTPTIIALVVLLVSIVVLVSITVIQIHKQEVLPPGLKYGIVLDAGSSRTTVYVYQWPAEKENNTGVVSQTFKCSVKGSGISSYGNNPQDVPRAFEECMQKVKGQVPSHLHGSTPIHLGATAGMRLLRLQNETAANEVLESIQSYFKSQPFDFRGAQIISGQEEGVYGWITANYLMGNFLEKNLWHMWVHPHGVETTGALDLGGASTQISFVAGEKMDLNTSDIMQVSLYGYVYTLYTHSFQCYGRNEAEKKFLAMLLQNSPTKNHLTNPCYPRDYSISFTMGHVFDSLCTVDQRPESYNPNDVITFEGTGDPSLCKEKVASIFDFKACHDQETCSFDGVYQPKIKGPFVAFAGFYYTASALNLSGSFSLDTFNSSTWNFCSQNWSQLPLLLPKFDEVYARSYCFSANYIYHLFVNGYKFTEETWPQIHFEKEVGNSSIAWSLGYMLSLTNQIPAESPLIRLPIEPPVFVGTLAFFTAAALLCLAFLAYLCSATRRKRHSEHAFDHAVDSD

[3] = biological target: T3, human NTPDase8 (Homo sapiens, UniProt Q5MY95); experiment: Hydrolysis by human NTPDase8; format: in vitro ADME; details: for Hydrolysis by NTPDase8: 100 μM, 1 h, activity with 100 μM ATP = 100%
T3 construct: made in house; host or cells: COS-7 cells (transfected; protein extract)
T3 sequence (Q5MY95 1-495): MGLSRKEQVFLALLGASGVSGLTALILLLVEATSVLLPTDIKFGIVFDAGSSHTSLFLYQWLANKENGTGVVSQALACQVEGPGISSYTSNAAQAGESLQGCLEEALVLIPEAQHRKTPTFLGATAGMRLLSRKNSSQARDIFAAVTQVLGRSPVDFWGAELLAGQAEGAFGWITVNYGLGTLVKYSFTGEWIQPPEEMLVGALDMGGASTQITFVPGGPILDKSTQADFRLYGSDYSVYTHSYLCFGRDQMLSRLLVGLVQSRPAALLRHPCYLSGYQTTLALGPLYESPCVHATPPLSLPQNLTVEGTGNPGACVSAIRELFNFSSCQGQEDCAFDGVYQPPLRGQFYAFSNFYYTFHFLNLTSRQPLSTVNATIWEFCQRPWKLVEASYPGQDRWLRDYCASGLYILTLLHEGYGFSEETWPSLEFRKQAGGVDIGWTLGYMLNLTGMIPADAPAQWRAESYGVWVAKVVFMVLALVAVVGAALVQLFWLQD

[4] = biological target: T3, human NTPDase8; experiment: Inhibition of NTPDase8 activity; format: biochemical; details: for effect on human NTPDase8 activity: Table 5, ATP and analogue 100 μM, 100% activity = ATP alone; for inhibition of the hydrolysis of ATP by NTPDase8: analogue and ATP 100 μM
[5] = biological target: T4, human NTPDase1 (Homo sapiens, UniProt P49961); experiment: Hydrolysis by human NTPDase1; format: in vitro ADME; design: made in house; host or cells: COS-7 cells (transfected; protein extract); details: for Hydrolysis by NTPDase1: 100 μM, 1 h, activity with 100 μM ATP = 100%
T4 sequence (P49961 1-510): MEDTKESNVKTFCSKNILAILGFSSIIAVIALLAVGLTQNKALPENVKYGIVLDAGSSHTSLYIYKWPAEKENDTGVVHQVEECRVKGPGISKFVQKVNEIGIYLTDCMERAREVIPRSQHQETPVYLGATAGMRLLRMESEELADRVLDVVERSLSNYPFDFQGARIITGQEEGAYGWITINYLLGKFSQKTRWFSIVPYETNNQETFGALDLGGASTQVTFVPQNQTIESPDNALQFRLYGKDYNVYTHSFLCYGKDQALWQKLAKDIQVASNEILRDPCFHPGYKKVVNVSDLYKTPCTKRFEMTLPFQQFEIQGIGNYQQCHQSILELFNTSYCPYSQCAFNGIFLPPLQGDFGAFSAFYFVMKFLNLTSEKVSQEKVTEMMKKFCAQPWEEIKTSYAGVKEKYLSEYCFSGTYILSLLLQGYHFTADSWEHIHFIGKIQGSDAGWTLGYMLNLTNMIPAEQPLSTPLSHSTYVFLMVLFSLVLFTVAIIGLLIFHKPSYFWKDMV

Nc1ncnc2c1ncn2[C@@H]1O[C@H](COP(O)(=S)OP(=O)(O)C(Cl)(Cl)P(=O)(O)O)[C@@H](O)[C@H]1O (single isomer, unassigned) [APPCCl2P-α-S, adenosine 5′-[Pα-thio]-β,γ-(dichloromethylene)triphosphate]
IC50 [1]: 390 nM | Ki [1]: 20 nM | type of inhibition [1]: mixed type inhibition, predominantly competitive

Nc1ncnc2c1ncn2[C@@H]1O[C@H](COP(O)(=S)OP(=O)(O)C(Cl)(Cl)P(=O)(O)O)[C@@H](O)[C@H]1O (single isomer, unassigned; isomer a) [APPCCl2P-α-S (isomer A), adenosine 5′-[Pα-thio]-β,γ-(dichloromethylene)triphosphate]
effect on human NTPDase3 activity ([2]; listed as APPCCl2P-α-S A): 21.8 ± 1.0% | inhibition of the hydrolysis of ATP by NTPDase3 [2]: did not interfere | IC50 ([1]; NPP1, text, read-out: IC50): 600 nM | Ki ([1]; NPP1, text, read-out: Ki): 685 nM | Hydrolysis by NTPDase8 ([3]; listed as APPCCl2P-α-S A): 4.3 ± 0.1% | effect on human NTPDase8 activity ([4]; listed as APPCCl2P-α-S A): 4.9 ± 0.2% | inhibition of the hydrolysis of ATP by NTPDase8 [4]: did not interfere | Hydrolysis by NTPDase1 ([5]; listed as APPCCl2P-α-S A): 5.3 ± 0.2%

Nc1ncnc2c1ncn2[C@@H]1O[C@H](COP(O)(=S)OP(=O)(O)CP(=O)(O)O)[C@@H](O)[C@H]1O (single isomer, unassigned; isomer a) [APPCP-α-S (isomer A), adenosine 5′-[Pα-thio]-β,γ-methylenetriphosphate]
effect on human NTPDase3 activity ([2]; listed as APPCP-α-S A): 40.2 ± 2.0% | inhibition of the hydrolysis of ATP by NTPDase3 [2]: did not interfere | Ki ([1]; dissociation constant for EIS complex, Cornish-Bowden plot, listed as APPCP-α-S A, read-out: Ki′): 4500 ± 3 nM | Ki ([1]; pNP-TMP as substrate, Dixon plot, listed as APPCP-α-S A, read-out: Ki): 4500 ± 30 nM | Hydrolysis by NTPDase8 ([3]; listed as APPCP-α-S A): 4.4% | effect on human NTPDase8 activity ([4]; listed as APPCP-α-S A): 7.0 ± 0.3% | inhibition of the hydrolysis of ATP by NTPDase8 [4]: did not interfere | Hydrolysis by NTPDase1 ([5]; listed as APPCP-α-S A): 4.4%

Nc1ncnc2c1ncn2[C@@H]1O[C@H](COP(O)(=S)OP(=O)(O)C(Cl)(Cl)P(=O)(O)O)[C@@H](O)[C@H]1O (single isomer, unassigned; isomer b) [APPCCl2P-α-S (isomer B), adenosine 5′-[Pα-thio]-β,γ-(dichloromethylene)triphosphate]
effect on human NTPDase3 activity ([2]; listed as APPCCl2P-α-S B): 24.0 ± 1.2% | inhibition of the hydrolysis of ATP by NTPDase3 [2]: did not interfere | Ki ([1]; pNP-TMP as substrate, Dixon plot, read-out: Ki): 15200 ± 100 nM | Hydrolysis by NTPDase8 ([3]; listed as APPCCl2P-α-S B): 5.3% | effect on human NTPDase8 activity ([4]; listed as APPCCl2P-α-S B): 1.5 ± 0.06% | inhibition of the hydrolysis of ATP by NTPDase8 [4]: did not interfere | Hydrolysis by NTPDase1 ([5]; listed as APPCCl2P-α-S B): 5.4%

Nc1ncnc2c1ncn2[C@@H]1O[C@H](COP(O)(=S)OP(=O)(O)CP(=O)(O)O)[C@@H](O)[C@H]1O (single isomer, unassigned; isomer b) [APPCP-α-S (isomer B), adenosine 5′-[Pα-thio]-β,γ-methylenetriphosphate]
effect on human NTPDase3 activity ([2]; listed as APPCP-α-S B): 18.7 ± 0.8% | inhibition of the hydrolysis of ATP by NTPDase3 [2]: did not interfere | Ki ([1]; pNP-TMP as substrate, Dixon plot, listed as APPCP-α-S B, read-out: Ki): 1300 ± 10 nM | Hydrolysis by NTPDase8 ([3]; listed as APPCP-α-S B): 5.3 ± 0.2% | effect on human NTPDase8 activity ([4]; listed as APPCP-α-S B): 0.5 ± 0.01% | inhibition of the hydrolysis of ATP by NTPDase8 [4]: did not interfere | Hydrolysis by NTPDase1 ([5]; listed as APPCP-α-S B): 5.4 ± 0.2%

Nc1ncnc2c1ncn2[C@@H]1O[C@H](COP(=O)(O)OP(O)(O)=S)[C@@H](O)[C@H]1O [ADP-β-S, adenosine 5′-[β-thio]diphosphate, reference compound]
inhibition of the hydrolysis of ATP by NTPDase3 [2]: less than 50% | inhibition of pnp-TMP hydrolysis by NPP1 [1]: 95% | Relative hydrolysis by NTPDase8 [3]: 14 ± 0.1 % ± SD of ADP or AP2A hydrolysis | inhibition of the hydrolysis of ATP by NTPDase8 [4]: less than 50%

Nc1ncnc2c1ncn2[C@@H]1O[C@H](COP(=O)(O)CP(=O)(O)OP(O)(O)=S)[C@@H](O)[C@H]1O [APCPP-γ-S, adenosine 5′-[Pγ-thio]-α,β-methylenetriphosphate]
effect on human NTPDase3 activity [2]: 26.8 ± 1.1% | Ki [1]: < 9000 nM | type of inhibition [1]: mixed type inhibition, predominantly competitive | Ki ([1]; NPP1, text, read-out: Ki): 20 nM | Hydrolysis by NTPDase8 [3]: 5.2 ± 0.2% | effect on human NTPDase8 activity [4]: 0.50 ± 0.02% | Hydrolysis by NTPDase1 [5]: 5.3 ± 0.2%

adenosine-5′-tetrathiobisphosphonate
inhibition of pnp-TMP hydrolysis by NPP1 [1]: 4% | Relative hydrolysis by NTPDase8 [3]: 7 ± 1 % ± SD of ADP or AP2A hydrolysis | inhibition of the hydrolysis of ATP by NTPDase8 [4]: 49% | Relative hydrolysis by NTPDase1 [5]: 1 ± 0.2 % ± SD of ADP or AP2A hydrolysis

di-adenosine-5′,5″-tetrathiobisphosphonate
inhibition of the hydrolysis of ATP by NTPDase3 [2]: 5-20% | inhibition of pnp-TMP hydrolysis by NPP1 [1]: ~60% | Relative hydrolysis by NTPDase8 [3]: 3.0 ± 0.1 % ± SD of ADP or AP2A hydrolysis | inhibition of the hydrolysis of ATP by NTPDase8 [4]: 5-20%
